Source: patent US12540128B2, “Substituted pyridazinones as herbicides” (SYNGENTA CROP PROTECTION AG, priority 2019, dated 2026)

What was measured:
Assay type in all cases: in vivo
Conditions in all cases: 250 g/ha, after 13 days
Lolium perenne (LOLPE) [1] = test: B3 Pre-Emergence Efficacy Test 1
Experimental: (§1) Seeds of a variety of test species were sown in standard soil in pots: Solanum nigrum (SOLNI), Amaranthus retoflexus (AMARE), Setaria faberi (SETFA), Echinochloa crus-galli (ECHCG), Ipomoea hederacea (IPOHE), Lolium perenne (LOLPE). After cultivation for one day (pre-emergence) under controlled conditions in a glasshouse (at 24/16° C., day/night; 14 hours light; 65% humidity), the plants were sprayed with an aqueous spray solution derived from the formulation of the technical active ingredient in acetone/water (50:50) solution containing 0.5% Tween 20 (polyoxyethelyene sorbitan monolaurate, CAS RN 9005-64-5). Compounds are applied at 250 g/ha. The test plants were then grown in a glasshouse under controlled conditions (at 24/16° C., day/night; 14 hours light; 65% humidity) and watered twice daily. After 13 days, the test is evaluated for the percentage damage caused to the plant. The biological activities are assessed on a five point scale (5=80-100%; 4=60-79%; 3=40-59%; 2=20-39%; 1=0-19%). A blank value in the table is indicative that the compound was not tested on that species.

[2] = test system: Amaranthus retoflexus (AMARE); test: B3 Pre-Emergence Efficacy Test 1
Experimental: as §1

[3] = test system: Ipomoea hederacea (IPOHE); test: B3 Pre-Emergence Efficacy Test 1
Experimental: as §1

Solanum nigrum (SOLNI) [4] = test: B3 Pre-Emergence Efficacy Test 1
Experimental: as §1

[5] = test system: Echinochloa crus-galli (ECHCG); test: B3 Pre-Emergence Efficacy Test 1
Experimental: as §1

Setaria faberi (SETFA) [6] = test: B3 Pre-Emergence Efficacy Test 1
Experimental: as §1

Lolium perenne (LOLPE) [7] = test: B1 Post-Emergence Efficacy Test 1
Experimental: (§2) Seeds of a variety of test species are sown in standard soil in pots:— Solanum nigrum (SOLNI), Amaranthus retoflexus (AMARE), Setaria faberi (SETFA), Echinochloa crus-galli (ECHCG), Ipomoea hederacea (IPOHE), Lolium perenne (LOLPE). After 8 days cultivation (post-emergence) under controlled conditions in a glasshouse (at 24/16° C., day/night; 14 hours light; 65% humidity), the plants are sprayed with an aqueous spray solution derived from the formulation of the technical active ingredient in acetone/water (50:50) solution containing 0.5% Tween 20 (polyoxyethylene sorbitan monolaurate, CAS RN 9005-64-5). Compounds are applied at 250 g/ha. The test plants are then grown in a glasshouse under controlled conditions in a glasshouse (at 24/16° C., day/night; 14 hours light; 65% humidity) and watered twice daily. After 13 days, the test is evaluated for the percentage damage caused to the plant. The biological activities are assessed on a five point scale (5=80-100%; 4=60-79%; 3=40-59%; 2=20-39%; 1=0-19%). A blank value in the table is indicative that the compound was not tested on that species.

[8] = test system: Amaranthus retoflexus (AMARE); test: B1 Post-Emergence Efficacy Test 1
Experimental: as §2

[9] = test system: Ipomoea hederacea (IPOHE); test: B1 Post-Emergence Efficacy Test 1
Experimental: as §2

Solanum nigrum (SOLNI) [10] = test: B1 Post-Emergence Efficacy Test 1
Experimental: as §2

Setaria faberi (SETFA) [11] = test: B1 Post-Emergence Efficacy Test 1
Experimental: as §2

[12] = test system: Echinochloa crus-galli (ECHCG); test: B1 Post-Emergence Efficacy Test 1
Experimental: as §2

[13] = test system: Amaranthus retoflexus (AMARE); test: B2 Post-Emergence Efficacy Test 2
Experimental: as §2, with “pots:—” for “pots:— Solanum nigrum (SOLNI),”, “Zea Mays (ZEAMX), Abutilon theophrasti (ABUTH).” for “Lolium perenne (LOLPE).”

[14] = test system: Ipomoea hederacea (IPOHE); test: B2 Post-Emergence Efficacy Test 2
Experimental: as §2, with “pots:—” for “pots:— Solanum nigrum (SOLNI),”, “Zea Mays (ZEAMX), Abutilon theophrasti (ABUTH).” for “Lolium perenne (LOLPE).”

Zea Mays (ZEAMX) [15] = test: B2 Post-Emergence Efficacy Test 2
Experimental: as §2, with “pots:—” for “pots:— Solanum nigrum (SOLNI),”, “Zea Mays (ZEAMX), Abutilon theophrasti (ABUTH).” for “Lolium perenne (LOLPE).”

[16] = test system: Abutilon theophrasti (ABUTH); test: B2 Post-Emergence Efficacy Test 2
Experimental: as §2, with “pots:—” for “pots:— Solanum nigrum (SOLNI),”, “Zea Mays (ZEAMX), Abutilon theophrasti (ABUTH).” for “Lolium perenne (LOLPE).”

Setaria faberi (SETFA) [17] = test: B2 Post-Emergence Efficacy Test 2
Experimental: as §2, with “pots:—” for “pots:— Solanum nigrum (SOLNI),”, “Zea Mays (ZEAMX), Abutilon theophrasti (ABUTH).” for “Lolium perenne (LOLPE).”

[18] = test system: Amaranthus retoflexus (AMARE); test: B4 Pre-Emergence Efficacy Test 2
Experimental: as §1, with “pots:” for “pots: Solanum nigrum (SOLNI),”, “Zea Mays (ZEAMX), Abutilon theophrasti (ABUTH).” for “Lolium perenne (LOLPE).”

[19] = test system: Ipomoea hederacea (IPOHE); test: B4 Pre-Emergence Efficacy Test 2
Experimental: as §1, with “pots:” for “pots: Solanum nigrum (SOLNI),”, “Zea Mays (ZEAMX), Abutilon theophrasti (ABUTH).” for “Lolium perenne (LOLPE).”

Zea Mays (ZEAMX) [20] = test: B4 Pre-Emergence Efficacy Test 2
Experimental: as §1, with “pots:” for “pots: Solanum nigrum (SOLNI),”, “Zea Mays (ZEAMX), Abutilon theophrasti (ABUTH).” for “Lolium perenne (LOLPE).”

[21] = test system: Abutilon theophrasti (ABUTH); test: B4 Pre-Emergence Efficacy Test 2
Experimental: as §1, with “pots:” for “pots: Solanum nigrum (SOLNI),”, “Zea Mays (ZEAMX), Abutilon theophrasti (ABUTH).” for “Lolium perenne (LOLPE).”

[22] = test system: Echinochloa crus-galli (ECHCG); test: B4 Pre-Emergence Efficacy Test 2
Experimental: as §1, with “pots:” for “pots: Solanum nigrum (SOLNI),”, “Zea Mays (ZEAMX), Abutilon theophrasti (ABUTH).” for “Lolium perenne (LOLPE).”

Setaria faberi (SETFA) [23] = test: B4 Pre-Emergence Efficacy Test 2
Experimental: as §1, with “pots:” for “pots: Solanum nigrum (SOLNI),”, “Zea Mays (ZEAMX), Abutilon theophrasti (ABUTH).” for “Lolium perenne (LOLPE).”

[24] = test system: Echinochloa crus-galli (ECHCG); test: B2 Post-Emergence Efficacy Test 2
Experimental: as §2, with “pots:—” for “pots:— Solanum nigrum (SOLNI),”, “Zea Mays (ZEAMX), Abutilon theophrasti (ABUTH).” for “Lolium perenne (LOLPE).”

Structure (SMILES) | percentage damage caused to the plant, five point scale, LOLPE (Lolium perenne (LOLPE) [1]) | percentage damage caused to the plant, five point scale, AMARE [2] | percentage damage caused to the plant, five point scale, IPOHE [3] | percentage damage caused to the plant, five point scale, LOLPE (Lolium perenne (LOLPE) [7]) | percentage damage caused to the plant, five point scale, AMARE [8] | percentage damage caused to the plant, five point scale, IPOHE [9] | percentage damage caused to the plant, five point scale, SOLNI (Solanum nigrum (SOLNI) [10]) | percentage damage caused to the plant, five point scale, SETFA (Setaria faberi (SETFA) [11]) | percentage damage caused to the plant, five point scale, AMARE [13] | percentage damage caused to the plant, five point scale, IPOHE [14] | percentage damage caused to the plant, five point scale, ZEAMX (Zea Mays (ZEAMX) [15]) | percentage damage caused to the plant, five point scale, ABUTH [16] | percentage damage caused to the plant, five point scale, SETFA (Setaria faberi (SETFA) [17]) | percentage damage caused to the plant, five point scale, AMARE [18] | percentage damage caused to the plant, five point scale, IPOHE [19] | percentage damage caused to the plant, five point scale, ZEAMX (Zea Mays (ZEAMX) [20]) | percentage damage caused to the plant, five point scale, ABUTH [21] | percentage damage caused to the plant, five point scale, ECHCG [22] | percentage damage caused to the plant, five point scale, SETFA (Setaria faberi (SETFA) [23]) | percentage damage caused to the plant, five point scale, ECHCG [24] | other results
Cc1ccc2cc(/C=C/c3c(Cl)ccc(F)c3-c3c(OC(=O)C(C)C)c(C)nn(C)c3=O)ccc2n1 [Compound 4.034, [5-[3-chloro-6-fluoro-2-[(E)-2-(2-methyl-6-quinolyl)vinyl]phenyl]-1,3-dimethyl-6-oxo-pyridazin-4-yl] 2-methylpropanoate] | 0 | 0 | 0 | 1 (1=0-19%) | 1 (1=0-19%) | 3 (3=40-59%) | 5 (5=80-100%) | 2 (2=20-39%) | – | – | – | – | – | – | – | – | – | – | – | – | percentage damage caused to the plant, five point scale, SOLNI (Solanum nigrum (SOLNI) [4]): 1 (1=0-19%); percentage damage caused to the plant, five point scale, ECHCG [5]: 0; percentage damage caused to the plant, five point scale, SETFA (Setaria faberi (SETFA) [6]): 0
Cc1nn(C)c(=O)c(-c2c(F)ccc(Cl)c2CCc2ccc3c(c2)CC(=O)N3)c1O [Compound 1.357] | – | – | – | 5 (5=80-100%) | 5 (5=80-100%) | 5 (5=80-100%) | 5 (5=80-100%) | 5 (5=80-100%) | 2 (2=20-39%) | 4 (4=60-79%) | 5 (5=80-100%) | 4 (4=60-79%) | 4 (4=60-79%) | 4 (4=60-79%) | 3 (3=40-59%) | 1 (1=0-19%) | 4 (4=60-79%) | 4 (4=60-79%) | 4 (4=60-79%) | – | percentage damage caused to the plant, five point scale, ECHCG [12]: 4 (4=60-79%)
Cc1ccc2cc(/C=C/c3c(Cl)ccc(F)c3-c3c(O)c(C)nn(C)c3=O)ccc2n1 [Compound 2.034, 4-[3-chloro-6-fluoro-2-[(E)-2-(2-methyl-6-quinolyl)vinyl]phenyl]-5-hydroxy-2,6-dimethyl-pyridazin-3-one] | 1 (1=0-19%) | 1 (1=0-19%) | 0 | 2 (2=20-39%) | 1 (1=0-19%) | 3 (3=40-59%) | 5 (5=80-100%) | 2 (2=20-39%) | – | – | – | – | – | – | – | – | – | – | – | – | percentage damage caused to the plant, five point scale, SOLNI (Solanum nigrum (SOLNI) [4]): 2 (2=20-39%); percentage damage caused to the plant, five point scale, ECHCG [5]: 1 (1=0-19%); percentage damage caused to the plant, five point scale, SETFA (Setaria faberi (SETFA) [6]): 1 (1=0-19%)
Cc1nn(C)c(=O)c(-c2c(F)ccc(Cl)c2CCc2nc3ccccc3o2)c1O [Compound 1.359] | – | – | – | – | – | – | – | – | 3 (3=40-59%) | 2 (2=20-39%) | 1 (1=0-19%) | 4 (4=60-79%) | 3 (3=40-59%) | 5 (5=80-100%) | 4 (4=60-79%) | 3 (3=40-59%) | 5 (5=80-100%) | 5 (5=80-100%) | 5 (5=80-100%) | 3 (3=40-59%) | –
Cc1nn(C)c(=O)c(-c2c(F)ccc(Cl)c2CCc2ccc3oc(=O)[nH]c3c2)c1O [Compound 1.352] | – | – | – | – | – | – | – | – | 4 (4=60-79%) | 3 (3=40-59%) | 3 (3=40-59%) | 4 (4=60-79%) | 4 (4=60-79%) | 5 (5=80-100%) | 3 (3=40-59%) | 4 (4=60-79%) | 4 (4=60-79%) | 3 (3=40-59%) | 5 (5=80-100%) | 4 (4=60-79%) | –
Cc1nn(C)c(=O)c(-c2c(F)ccc(Cl)c2CCc2ccc3c(C)noc3c2)c1O [Compound 1.351] | – | – | – | – | – | – | – | – | 5 (5=80-100%) | 5 (5=80-100%) | 5 (5=80-100%) | 5 (5=80-100%) | 4 (4=60-79%) | 5 (5=80-100%) | 5 (5=80-100%) | 5 (5=80-100%) | 5 (5=80-100%) | 5 (5=80-100%) | 5 (5=80-100%) | 4 (4=60-79%) | –
